Results: patent publication US7094869B2, “Low molecular weight peptidomimetic growth hormone secretagogues” (Genentech, Inc., priority 1994, dated 2006)
Where two headings read alike, the source gives them in different places. Starred links: 1 amine or outer side, 2 acyl side, 3 side chain; linkers in the order of their positions; H or OH if unused. Non-standard residues stand in square brackets, D forms with d. Residues, ends and D or L forms follow the SMILES beside them. ξ: configuration not given here. *: point of attachment. dPhe(4-Cl) = N[C@H](Cc1ccc(Cl)cc1)C(=O)O; 1Nal = N[C@@H](Cc1cccc2ccccc12)C(=O)O; 2Nal = N[C@@H](Cc1ccc2ccccc2c1)C(=O)O; d2Nal = N[C@H](Cc1ccc2ccccc2c1)C(=O)O; Ethylenediamine = C(CN[*:2])N[*:1]; d(hPhe) = N[C@H](CCc1ccccc1)C(=O)O; ξ2Nal = NC(Cc1ccc2ccccc2c1)C(=O)O; αMeF = C[C@](N)(Cc1ccccc1)C(=O)O; β3hF = N[C@H](CC(=O)O)Cc1ccccc1; Phe(ol) = N[C@H](CO)Cc1ccccc1; Ac6c = NC1(C(=O)O)CCCCC1; Nle = CCCC[C@H](N)C(=O)O; Orn = NCCC[C@H](N)C(=O)O; Inp = O=C(O)C1CCNCC1; ξK = NCCCCC(N)C(=O)O; NHtBu = CC(C)(C)N*; βAla = NCCC(=O)O

Experiments:
[1] = target: rat pituitary cells (Rattus norvegicus, UniProt O08725); conditions: read-out: PIT Cell EC50, GH release, 15 min incubation
rat pituitary cells, sequence (O08725 whole entry): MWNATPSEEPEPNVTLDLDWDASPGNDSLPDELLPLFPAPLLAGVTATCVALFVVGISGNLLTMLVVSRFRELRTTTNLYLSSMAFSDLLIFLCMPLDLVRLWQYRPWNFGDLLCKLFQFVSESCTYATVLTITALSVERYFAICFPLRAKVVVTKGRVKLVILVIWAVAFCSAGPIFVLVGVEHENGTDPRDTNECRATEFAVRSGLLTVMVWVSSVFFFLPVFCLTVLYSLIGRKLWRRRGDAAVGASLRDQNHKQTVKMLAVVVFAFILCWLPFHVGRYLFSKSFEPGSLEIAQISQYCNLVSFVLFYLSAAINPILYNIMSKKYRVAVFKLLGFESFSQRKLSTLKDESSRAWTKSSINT
How it was run: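 Primary rat anterior pituitary cells, cultured three days in DME low glucose/10% FBS, were washed, pre-incubated twice for 15 min, then challenged 15 min with test compounds (DMSO ≤0.1%) at 37 °C. Released GH was measured by two-site ELISA; EC50 came from 4-parameter fits, mean of three to four independent determinations.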

[2] = test system: growth hormone secretion; test: GHRP induced growth hormone secretion, intravenous administration (Rat IV); type: in vivo; conditions: iv injection, serum GH 10 min after injection
Description: Immature weanling female Sprague Dawley rats were purchased from Charles River Labs (Portage, […].) and group housed with water and food available ad libitum. When the rats were 24-30 days old (weighing 50-90 g) they were anesthetized with pentobarbitone (4 mg in 0.5 ml, approximately 60 mg/kg) given by intraperitoneal injection. The rats were then placed briefly on a heated pad, to distend their tail veins, and given an intravenous tail vein injection of the peptides 20 minutes after receiving the anesthetic. The intravenous injection was of 0.1 ml using a 1 ml syringe. The injections contained graded doses of peptides or the vehicle (vehicle for all peptides given intravenously was a buffer of 20 mM sodium acetate, 45 g/l mannitol, pH 5.0). Ten minutes after the intravenous injection blood was taken by cardiac puncture, using a 3 ml syringe, and the rats were then sacrificed.
The blood was then clotted on ice, centrifuged, serum decanted and frozen for subsequent analysis using the rat GH ELISA described elsewhere in the application. For the rat GH ELISA the serum was diluted 1:50 or 1:250, depending on the expected serum GH concentrations achieved, and assayed in duplicate.

[3] = Table IV, formula III compounds
[4] = Table III, formula IV compounds

Compound | EC50 [1, 3] | RAT IV ED50 ([2]; Table IV) | further results
NC(=O)C1(NC(=O)[C@@H](Cc2ccc3ccccc3c2)NC(=O)[C@@H](Cc2ccc3ccccc3c2)NC(=O)C2CCNCC2)CCCCC1 [(inip) b b Abx amide] (H-[Inp][d2Nal][d2Nal][Ac6c]-NH2) | 13 nM | 100 µg | –
NC(=O)[C@H](Cc1ccc2ccccc2c1)NC(=O)[C@@H](Cc1ccc2ccccc2c1)NC(=O)[C@@H](Cc1ccc2ccccc2c1)NC(=O)C1CCNCC1 [(inip) b b B amide] (H-[Inp][d2Nal][d2Nal][2Nal]-NH2) | 0.1 nM | 50 µg | –
NCCCC[C@H](NC(=O)[C@H](Cc1ccccc1)NC(=O)[C@@H](Cc1ccc2ccccc2c1)NC(=O)[C@@H](Cc1ccc2ccccc2c1)NC(=O)C1CCNCC1)C(=O)N[C@@H](Cc1ccc(O)cc1)C(N)=O [(inip) b b F K Y amide] (H-[Inp][d2Nal][d2Nal]FKY-NH2) | – | – | EC50 [1, 4]: 0.43 nM; RAT IV ED50 ([2]; Table III): 1 µg
COC(=O)[C@H](Cc1ccccc1)NC(=O)[C@@H](Cc1ccc2ccccc2c1)NC(=O)[C@@H](Cc1ccc2ccccc2c1)NC(=O)C1CCNCC1 [(inip) b b F Me ester] (H-[Inp][d2Nal][d2Nal]F-OMe) | 2.8 nM | 2 µg | –
O=C(N[C@H](Cc1ccc2ccccc2c1)C(=O)N[C@H](Cc1ccc2ccccc2c1)C(=O)N[C@@H](Cc1ccccc1)C(=O)O)C1CCNCC1 [(inip) b b F acid, (inip)-DβNal-DβNal-Phe] (H-[Inp][d2Nal][d2Nal]F-OH) | 0.2 nM | 2 µg | –
NC(=O)CCNC(=O)[C@H](Cc1ccccc1)NC(=O)[C@@H](Cc1ccc2ccccc2c1)NC(=O)[C@@H](Cc1ccc2ccccc2c1)NC(=O)C1CCNCC1 [(inip) b b F bA amide] (H-[Inp][d2Nal][d2Nal]F[βAla]-NH2) | – | – | EC50 [1, 4]: 0.2 nM; RAT IV ED50 ([2]; Table III): 2 µg
CNC(=O)[C@H](Cc1ccccc1)NC(=O)[C@@H](Cc1ccc2ccccc2c1)NC(=O)[C@@H](Cc1ccc2ccccc2c1)NC(=O)C1CCNCC1 [(inip) b b F mam] (H-[Inp][d2Nal][d2Nal]F-NHMe) | – | – | EC50 [1, 4]: 2 nM; RAT IV ED50 ([2]; Table III): 2 µg
CC(C)(C)NC(=O)[C@H](Cc1ccccc1)NC(=O)[C@@H](Cc1ccc2ccccc2c1)NC(=O)[C@@H](Cc1ccc2ccccc2c1)NC(=O)C1CCNCC1 [(inip) b b F tbm] (H-[Inp][d2Nal][d2Nal]F-NHtBu) | – | – | EC50 [1, 4]: 10 nM; RAT IV ED50 ([2]; Table III): 10 µg
NCCC[C@H](NC(=O)[C@@H](Cc1ccc2ccccc2c1)NC(=O)[C@@H](Cc1ccc2ccccc2c1)NC(=O)C1CCNCC1)C(N)=O [(inip) b b O amide] (H-[Inp][d2Nal][d2Nal][Orn]-NH2) | 5.9 nM | 1 µg | –
NC(=O)[C@@H]1CCCN1C(=O)[C@@H](Cc1ccc2ccccc2c1)NC(=O)[C@@H](Cc1ccc2ccccc2c1)NC(=O)C1CCNCC1 [(inip) b b P amide] (H-[Inp][d2Nal][d2Nal]P-NH2) | 9 nM | 5 µg | –
O=C(N[C@H](Cc1ccc2ccccc2c1)C(=O)N[C@H](Cc1ccc2ccccc2c1)C(=O)N[C@H](CO)Cc1ccccc1)C1CCNCC1 [(inip) b b Pol, (inip)-DβNal-DβNal-(L-Phenylalanol)] (H-[Inp][d2Nal][d2Nal][Phe(ol)]) | 0.2 nM | 5 µg | –
O=C(N[C@H](Cc1ccc2ccccc2c1)C(=O)N[C@H](Cc1ccc2ccccc2c1)C(=O)N[C@@H](Cc1ccc(O)cc1)C(=O)O)C1CCNCC1 [(inip) b b Y acid] (H-[Inp][d2Nal][d2Nal]Y-OH) | 5 nM | 10 µg | –
C[C@@](Cc1ccccc1)(NC(=O)[C@@H](Cc1ccc2ccccc2c1)NC(=O)[C@@H](Cc1ccc2ccccc2c1)NC(=O)C1CCNCC1)C(N)=O [(inip) b b amF amide] (H-[Inp][d2Nal][d2Nal][αMeF]-NH2) | 0.5 nM | 5 µg | –
O=C(N[C@H](Cc1ccc2ccccc2c1)C(=O)N[C@H](Cc1ccc2ccccc2c1)C(=O)NC1CCNCC1)C1CCNCC1 [(inip) b b api] | 2.7 nM | 25 µg | –
NC(=O)CCNC(=O)[C@@H](Cc1ccc2ccccc2c1)NC(=O)[C@@H](Cc1ccc2ccccc2c1)NC(=O)C1CCNCC1 [(inip) b b bA amide] (H-[Inp][d2Nal][d2Nal][βAla]-NH2) | 10 nM | 10 µg | –
NCCCCNC(=O)[C@@H](Cc1ccc2ccccc2c1)NC(=O)[C@@H](Cc1ccc2ccccc2c1)NC(=O)C1CCNCC1 [(inip) b b bam, (inip)-DβNal-DβNal-[N-(4-aminobutyl)] amide] | 18.5 nM | 3.3 µg | –
N[C@H]1CC[C@H](NC(=O)[C@@H](Cc2ccc3ccccc3c2)NC(=O)[C@@H](Cc2ccc3ccccc3c2)NC(=O)C2CCNCC2)CC1 [(inip) b b cxa] | 14 nM | 10 µg | –

Compound | EC50 [1, 3] | RAT IV ED50 ([2]; Table IV) | further results
NC(=O)[C@@H](Cc1ccccc1)NC(=O)[C@@H](Cc1ccc2ccccc2c1)NC(=O)[C@@H](Cc1ccc2ccccc2c1)NC(=O)C1CCNCC1 [(inip) b b f amide] (H-[Inp][d2Nal][d2Nal][dF]-NH2) | 0.6 nM | 20 µg | –
NCCCCN(CCc1ccccc1)C(=O)[C@@H](Cc1ccc2ccccc2c1)NC(=O)[C@@H](Cc1ccc2ccccc2c1)NC(=O)C1CCNCC1 [(inip) b b fbd, (inip)-DβNal-DβNal-[N-(2-phenylethyl), N-(4-aminobutyl)] amide] | 0.9 nM | 0.67 µg | –
NC(=O)CCN(CCc1ccccc1)C(=O)[C@@H](Cc1ccc2ccccc2c1)NC(=O)[C@@H](Cc1ccc2ccccc2c1)NC(=O)C1CCNCC1 [(inip) b b feb amide] | 0.3 nM | 0.67 µg | –
NC(=O)C[C@H](Cc1ccccc1)NC(=O)[C@@H](Cc1ccc2ccccc2c1)NC(=O)[C@@H](Cc1ccc2ccccc2c1)NC(=O)C1CCNCC1 [(inip) b b hcF amide, (inip)-DβNal-DβNal-(3(S)-3-benzyl-β-Ala)-amide] (H-[Inp][d2Nal][d2Nal][β3hF]-NH2) | 0.2 nM | 2.5 µg | –
CCCC[C@H](NC(=O)[C@@H](Cc1ccc2ccccc2c1)NC(=O)[C@@H](Cc1ccc2ccccc2c1)NC(=O)C1CCNCC1)C(N)=O [(inip) b b nL amide] (H-[Inp][d2Nal][d2Nal][Nle]-NH2) | 4.3 nM | 3.3 µg | –
NCCCCC(NC(=O)[C@H](Cc1cccc2ccccc12)NC(=O)[C@@H](Cc1ccc2ccccc2c1)NC(=O)C(Cc1ccc2ccccc2c1)NC(=O)C1CCNCC1)C(N)=O (stereo partly drawn) [(inip) b b npA K amide, (inip)-DβNal-DβNal-αNal-Lys-amide] (H-[Inp][ξ2Nal][d2Nal][1Nal][ξK]-NH2) | – | – | EC50 [1, 4]: 0.1 nM; RAT IV ED50 ([2]; Table III): 1 µg
NC(=O)[C@H](Cc1cccc2ccccc12)NC(=O)[C@@H](Cc1ccc2ccccc2c1)NC(=O)[C@@H](Cc1ccc2ccccc2c1)NC(=O)C1CCNCC1 [(inip) b b npA amide] (H-[Inp][d2Nal][d2Nal][1Nal]-NH2) | 0.2 nM | 5 µg | –
O=C(N[C@H](Cc1ccc2ccccc2c1)C(=O)N[C@H](Cc1ccc2ccccc2c1)C(=O)N1CCNCC1)C1CCNCC1 [(inip) b b ppz] | 10 nM | 10 µg | –
NCCCNC(=O)[C@@H](Cc1ccc2ccccc2c1)NC(=O)[C@@H](Cc1ccc2ccccc2c1)NC(=O)C1CCNCC1 [(inip) b b ram] | 16 nM | 5 µg | –
NCCNC(=O)[C@@H](Cc1ccc2ccccc2c1)NC(=O)[C@@H](Cc1ccc2ccccc2c1)NC(=O)C1CCNCC1 [(inip) b b tam] (H-[Inp]-[d2Nal]-[d2Nal]-Ethylenediamine) | 11 nM | 20 µg | –
O=C(N[C@H](Cc1ccc2ccccc2c1)C(=O)N[C@@H](CO)Cc1ccc2ccccc2c1)C1CCNCC1 [(inip) b bol] | – | – | EC50 ([1]; Table V, formula II compounds): 2 nM; RAT IV ED50 ([2]; Table V): 10 µg
NC(=O)[C@H](Cc1ccccc1)NC(=O)[C@@H](Cc1ccc(Cl)cc1)NC(=O)[C@@H](Cc1ccc2ccccc2c1)NC(=O)C1CCNCC1 [(inip) b chf F amide] (H-[Inp][d2Nal][dPhe(4-Cl)]F-NH2) | 2.7 nM | 5 µg | –
NC(=O)[C@H](Cc1ccccc1)NC(=O)[C@@H](CCc1ccccc1)NC(=O)[C@@H](Cc1ccc2ccccc2c1)NC(=O)C1CCNCC1 [(inip) b hf F amide] (H-[Inp][d2Nal][d(hPhe)]F-NH2) | 14 nM | 10 µg | –
O=C(N[C@H](Cc1ccc2ccccc2c1)C(=O)NCc1ccc2ccccc2c1)C1CCNCC1 [(inip) b man, (inip)-DβNal-(2-aminomethylnaphthyl) amide] | – | – | EC50 ([1]; Table V, formula II compounds): 9 nM; RAT IV ED50 ([2]; Table V): 500 µg
CN(C(=O)[C@@H](Cc1ccc2ccccc2c1)NC(=O)C1CCNCC1)[C@@H](CN)Cc1ccc2ccccc2c1 [(inip) b mbm] | – | – | EC50 ([1]; Table V, formula II compounds): 7 nM; RAT IV ED50 ([2]; Table V): 20 µg
CN(CCc1ccc2ccccc2c1)C(=O)[C@@H](Cc1ccc2ccccc2c1)NC(=O)C1CCNCC1 [(inip) b men, (inip)-DβNal-[N-methyl, N-1-{2-(2-naphthyl)ethyl}] amide] | – | – | EC50 ([1]; Table V, formula II compounds): 12 nM; RAT IV ED50 ([2]; Table V): 500 µg
